Experimental data taken from patent US20250314644A1, “METHODS COMPRISING DETECTION OF ADP-HEPTOSE” (CHILDREN'S HOSPITAL MEDICAL CENTER, priority 2023, published 2025).

Test system: Dnmt3a^WT cells
Experiment: RNA-sequencing of HSPCs treated in vitro with ADP-heptose or H2O for 90 minutes
Assay type: cell-based, mouse

## Nc1ncnc2c1ncn2[C@@H]1O[C@H](COP(=O)(O)OP(=O)(O)O[C@@H]2O[C@H]([C@H](O)CO)[C@@H](O)[C@H](O)[C@@H]2O)[C@@H](O)[C@H]1O [ADP-heptose, ADP-D-glycero-β-D-manno-heptose]
Dnmt3a^WT cells, vs H2O
  logFC 2900005J15Rik: 0.6052
  logFC AI607873: 0.6683
  logFC Abca1: −0.707
  logFC Acsbg1: 0.5944
  logFC Adgrg6: −0.645
  logFC Akap12: −1.955
  logFC Akr1c18: 0.7051
  logFC Alpk2: 1.196
  logFC Aoc1: 2.048
  logFC Arg1: 0.7872
  logFC Arl5c: −0.704
  logFC Arntl: −0.87
  logFC Asb2: 1.407
  logFC Atoh8: 0.7783
  logFC Azin2: 0.6183
  logFC B3galt5: 0.9015
  logFC Bach2: −0.675
  logFC Bcl2a1b: 0.925
  logFC Bcl2a1d: 0.6551
  logFC Bhlha15: −0.596
  logFC Blk: −1.578
  logFC Blnk: −1.446
  logFC Cacna1f: 0.7515
  logFC Ccdc63: −0.697
  logFC Ccdc85c: 0.7217
  logFC Ccl5: 1.104
  logFC Ccl17: 2.045
  logFC Ccl22: 0.7001
  logFC Ccl24: 1.365
  logFC Cd19: −1.847
  logFC Cd40: 0.6226
  logFC Cd74: 0.82
  logFC Cd79a: −1.818
  logFC Cd83: 1.204
  logFC Cecr2: −1.929
  logFC Chst3: −1.597
  logFC Cmpk2: 0.7001
  logFC Cplx2: −1.36
  logFC Cx3cl1: 0.9782
  logFC Cxc12: −1.129
  logFC Cxcl3: −0.91
  logFC Cyp4f17: 0.6547
  logFC Dact3: 0.6573
  logFC Dcstamp: 0.6406
  logFC Ddx60: 0.7796
  logFC Dhx58: 0.8261
  logFC Dntt: −2.827
  logFC Dock9: −0.589
  logFC Dsp: −0.701
  logFC Ebf1: −2.106
  logFC Ednrb: −0.653
  logFC Efnb2: 0.9402
  logFC Egr3: 0.785
  logFC Eno2: 0.6638
  logFC Epsti1: 0.6192
  logFC Fam129c: −0.677
  logFC Fam132b: −0.657
  logFC Fktn: −0.609
  logFC Gimap8: 0.7417
  logFC Gm13152: −0.827
  logFC Gpr27: 0.7663
  logFC Grap: 0.7694
  logFC Grasp: 0.5879
  logFC Grin2c: 0.9953
  logFC Grtp1: −0.628
  logFC Gstt1: 1.055
  logFC Gzmc: 2.215
  logFC H2-Aa: 0.9618
  logFC H2-Ab1: 0.9351
  logFC H2-DMb2: 0.7028
  logFC H2-Eb1: 1.049
  logFC Hgfac: 0.647
  logFC Hist1h2bj: 1.326
  logFC Hist1h3c: 0.7275
  logFC Hist1h3e: 1.345
  logFC Hist1h4d: 0.8341
  logFC Hivep2: 0.787
  logFC Hivep3: −0.682
  logFC Hmga1: 0.812
  logFC Hsh2d: 0.6798
  logFC Htr7: 0.9558
  logFC I113: 1.008
  logFC Ifi27l2a: 0.8565
  logFC Ifi44: 0.8977
  logFC Ifi204: 0.7452
  logFC Ifit1: 1.338
  logFC Ifit3: 1.739
  logFC Ifit3b: 1.88
  logFC Igll1: −2.359
  logFC Il1a: −1.749
  logFC Il1b: −1.155
  logFC Il6: 0.8099
  logFC Irf7: 1.151
  logFC Irg1: −0.846
  logFC Isg15: 1.268
  logFC Jakmip1: −0.62
  logFC Kcnj5: −0.586
  logFC Kif19a: −2.028
  logFC Klrd1: 0.6629
  logFC Kynu: 0.8281
  logFC Lad1: 1.447
  logFC Lax1: −1.106
  logFC Lef1: −1.83
  logFC Lgals3bp: 0.6079
  logFC Lrrc32: 0.6455
  logFC Lrrc51: 0.7656
  logFC Ltbp4: −0.7
  logFC Lynx1: 0.6016
  logFC Mir6236: 1.076
  logFC Mir6516: 0.6089
  logFC Mir8112: 0.8138
  logFC Mmp14: −0.771
  logFC Mnda: 0.9121
  logFC Mpl: −0.631
  logFC Ms4a4c: 1.575
  logFC Mx1: 0.6985
  logFC Mx2: 1.416
  logFC Mzb1: −1.509
  logFC Nov: 0.9714
  logFC Nr4a3: 0.7772
  logFC Oas1a: 0.8999
  logFC Oas1b: 0.8441
  logFC Oas1c: 0.6578
  logFC Oas1g: 1.142
  logFC Oas2: 0.966
  logFC Oas3: 0.864
  logFC Oasl1: 1.088
  logFC Oasl2: 1.178
  logFC Oit3: 0.5873
  logFC P4htm: 0.6018
  logFC Parp12: 0.7346
  logFC Pcbd1: −0.601
  logFC Pcsk9: −0.871
  logFC Pdgfb: 0.647
  logFC Perp: 0.6841
  logFC Pglyrp2: 0.8355
  logFC Phf11b: 1.046
  logFC Plcb1: 0.628
  logFC Plek2: 1.111
  logFC Pou2af1: −1.979
  logFC Ppbp: 0.6175
  logFC Procr: −0.659
  logFC Prok2: −0.608
  logFC Ptch2: −0.695
  logFC Ptpn 14: −1.123
  logFC Ptprn: 0.7392
  logFC Rab17: −0.755
  logFC Rag1: −3.551
  logFC Ramp3: 0.8948
  logFC Rbp1: −0.727
  logFC Rsad2: 1.141
  logFC Rsph1: −0.696
  logFC Rtp4: 1.478
  logFC Scn4b: −2.647
  logFC Sdc3: 0.6166
  logFC Siglech: −0.625
  logFC Sirpb1b: −0.633
  logFC Slc25a27: −0.715
  logFC Slc52a3: 0.8162
  logFC Slfn4: 0.7308
  logFC Slfn5: 1.407
  logFC Slfn8: 0.8032
  logFC Smim8: 0.6316
  logFC Smpdl3b: −0.714
  logFC Snhg9: −0.7
  logFC Spry1: 0.6924
  logFC Srp54b: 2.042
  logFC St6gal1: −0.723
  logFC Stbd1: 0.7931
  logFC Tmem51: 0.6591
  logFC Tnfrsf9: 0.982
  logFC Tnfrsf11b: 3.017
  logFC Tnni1: 3.17
  logFC Traf1: 0.6999
  logFC Tsku: −0.836
  logFC Tspan13: −0.592
  logFC Tssk6: 0.668
  logFC Ube2j2: 0.8674
  logFC Usp18: 1.346
  logFC Vpreb1: −2.268
  logFC Vpreb2: −2.096
  logFC Vpreb3: −2.553
  logFC Wdr86: 1.035
  logFC Xaf1: 1.054
  logFC Zbp1: 1.131
  logFC Zbtb37: −0.702
  logFC Zbtb46: 1.256
WT HSPCs
  differentially expressed genes (global transcriptomic analysis): few differentially expressed genes
